In patent publication US11559497B2 (Guangzhou Dazhou Biomedicine Ltd., priority 2020, dated 2023):

Columns and labels:
[1] = Reported human pharmacokinetics of ketamine by IV infusion, oral or intranasal route; conditions: 40-min IV infusion of 35 mg of ketamine
Description: There has been very limited data on monitoring HNK pharmacokinetics in humans in a robust approach. […] Also HNK was shown preclinically to have lower potential of AEs.

[2] = Phase 1 clinical study: plasma pharmacokinetics after ketamine transdermal patch; conditions: for plasma concentration: 28 mg dose; for AUC: AUCall; for AUC(0-inf): AUCinf
Description: Enrollment was planned to achieve participation of up to 14 adult subjects with MDD in the 3 stages of the protocol. Subjects were to be screened within 4 weeks of enrollment. Eligible subjects who provided written consent were to be enrolled into Stage 1 of the study. In Stage 1 of the study, subjects were to receive the low-dose transdermal patch. The amount of residual drug was to be measured and PK analysis conducted for each subject to inform the subsequent dosing. In Stage 2, after a 2 to 4 week washout period, a placebo patch was to be administered. A “deception” protocol was used in order to ensure the subjects remained blinded to the treatment. Placebo administration was followed by a 1 week washout period, after which subjects were to receive the high-dose transdermal patch in Stage 3. The overall study duration from screening until the end of Stage 3 was approximately 60 days, including both inpatient and outpatient portions of the study. The general study design is illustrated in FIG. 3.
The patch was predicted to deliver systemically approximately 20 mg.
For Stage 1, blood samples were collected pre-patch application, and at 2, 6, 12, 24, 28, 32, 48, 96, and 168 hours post-patch application.
Blood samples were collected in tubes containing sodium heparin and stored on ice or room temperature until centrifuged under refrigeration or room temperature for at least 10 minutes at 3,000 revolutions per minute. After centrifugation, plasma was removed, divided into 2 aliquots of approximately 0.6 mL each, frozen, and stored at or below −20° C. Blood was processed to plasma and frozen within 1 hour of collection. Processed frozen plasma samples were transferred on dry ice to the analytical laboratory and were stored at or below −20° C. until bioanalysis was performed.
A non-compartmental analysis (NCA) was used to calculate PK parameters using Phoenix® WinNonlin® 6.4 or later (Certara, USA).

[3] = Prediction of delivered dose and human PK from in vitro permeability and PK linearity; conditions: predicted
[4] = system: NMDA receptor; conditions: in vitro; Shimoyama et al., 1999; cited from earlier work

SMILES: NC1(c2ccccc2Cl)CCCC(O)C1=O (stereo not drawn) [Hydroxynorketamine, hydroxynorketamine]
- ratio of AUC of HNK/Ketamine ([1]; MDD patients, digitized from Zarate et al.): 0.522
- ratio of Cmax of HNK/ketamine ([1]; digitized from Zarate et al.): about 0.113
- plasma concentration ([2]; 48 hours post application of tested ketamine patch): about 10 ng/ml
- plasma concentration ([2]; 72 hours post application of tested ketamine patch): about 6 ng/ml
- AUCall ([2]; Stage 1 (60 cm^2 patch, 24 h, low-dose), Mean): 438 ng·h/mL
- AUCall ([2]; Stage 1 (60 cm^2 patch, 24 h, low-dose), Median): 364 ng·h/mL
- AUCinf ([2]; Stage 1, Mean): 666 ng·h/mL
- Cmax ([2]; Stage 1, Mean): 12.3 ng/mL
- Extrap ([2]; Stage 1, Mean): 10%
- T1/2 ([2]; Stage 1, Mean): 19.3 h
- Tmax ([2]; Stage 1, Mean): 33.0 h
- AUCinf ([2]; Stage 1, Median): 573 ng·h/mL
- Cmax ([2]; Stage 1, Median): 12.6 ng/mL
- Extrap ([2]; Stage 1, Median): 6%
- T1/2 ([2]; Stage 1, Median): 17.9 h
- Tmax ([2]; Stage 1, Median): 32.0 h
- AUCall ([2]; Stage 3 (20 and 60 cm^2 patches, high-dose), Mean): 549 ng·h/mL
- AUCall ([2]; Stage 3 (20 and 60 cm^2 patches, high-dose), Median): 488 ng·h/mL
- AUCinf ([2]; Stage 3, Mean): 839 ng·h/mL
- Cmax ([2]; Stage 3, Mean): 15.7 ng/mL
- Extrap ([2]; Stage 3, Mean): 15%
- T1/2 ([2]; Stage 3, Mean): 20.2 h
- Tmax ([2]; Stage 3, Mean): 33.5 h
- AUCinf ([2]; Stage 3, Median): 660 ng·h/mL
- Cmax ([2]; Stage 3, Median): 12.8 ng/mL
- Extrap ([2]; Stage 3, Median): 10%
- T1/2 ([2]; Stage 3, Median): 19.5 h
- Tmax ([2]; Stage 3, Median): 29.9 h
- ratio of AUC of HNK/Ketamine ([2]; tested ketamine patch): 2.23
- ratio of Cmax of HNK/ketamine ([2]; tested ketamine patch): 1.19
- Cmax resulting from about 100 mg dose by ketamine transdermal delivery device [3]: around 30 ng/mL

SMILES: NC1(c2ccccc2Cl)CCCCC1=O (stereo not drawn) [Norketamine, norketamine]
- ratio of AUC of NK/Ketamine ([1]; digitized literature data): 0.989
- ratio of Cmax of NK/ketamine ([1]; digitized literature data): about 0.362
- Extrap ([2]; Stage 1, Mean): 12%
- Extrap ([2]; Stage 1, Median): 11%
- Extrap ([2]; Stage 3, Mean): 7%
- Extrap ([2]; Stage 3, Median): 7%
- AUC ([2]; human, plasma, other: transdermal patch, 20 mg, Stage 1 (60 cm^2 patch, 24 h, low-dose), Mean): 377 ng·h/mL
- AUC ([2]; human, plasma, other: transdermal patch, 20 mg, Stage 1 (60 cm^2 patch, 24 h, low-dose), Median): 328 ng·h/mL
- AUC(0-inf) ([2]; human, plasma, other: transdermal patch, 20 mg, Stage 1, Mean): 420 ng·h/mL
- AUC(0-inf) ([2]; human, plasma, other: transdermal patch, 20 mg, Stage 1, Median): 367 ng·h/mL
- Cmax ([2]; human, plasma, other: transdermal patch, 20 mg, Cmax, Stage 1, Mean): 11.1 ng/mL
- Cmax ([2]; human, plasma, other: transdermal patch, 20 mg, Cmax, Stage 1, Median): 9.85 ng/mL
- half-life ([2]; human, plasma, other: transdermal patch, 20 mg, T1/2, Stage 1, Mean): 19.4 h
- half-life ([2]; human, plasma, other: transdermal patch, 20 mg, T1/2, Stage 1, Median): 21 h
- Tmax ([2]; human, plasma, other: transdermal patch, 20 mg, Tmax, Stage 1, Mean): 28.4 h
- Tmax ([2]; human, plasma, other: transdermal patch, 20 mg, Tmax, Stage 1, Median): 28 h
- AUC ([2]; human, plasma, other: transdermal patch, 40 mg, Stage 3 (20 and 60 cm^2 patches, high-dose), Mean): 486 ng·h/mL
- AUC ([2]; human, plasma, other: transdermal patch, 40 mg, Stage 3 (20 and 60 cm^2 patches, high-dose), Median): 387 ng·h/mL
- AUC(0-inf) ([2]; human, plasma, other: transdermal patch, 40 mg, Stage 3, Mean): 624 ng·h/mL
- AUC(0-inf) ([2]; human, plasma, other: transdermal patch, 40 mg, Stage 3, Median): 500 ng·h/mL
- Cmax ([2]; human, plasma, other: transdermal patch, 40 mg, Cmax, Stage 3, Mean): 13.4 ng/mL
- Cmax ([2]; human, plasma, other: transdermal patch, 40 mg, Cmax, Stage 3, Median): 10.3 ng/mL
- half-life ([2]; human, plasma, other: transdermal patch, 40 mg, T1/2, Stage 3, Mean): 17.9 h
- half-life ([2]; human, plasma, other: transdermal patch, 40 mg, T1/2, Stage 3, Median): 19.2 h
- Tmax ([2]; human, plasma, other: transdermal patch, 40 mg, Tmax, Stage 3, Mean): 31.1 h
- Tmax ([2]; human, plasma, other: transdermal patch, 40 mg, Tmax, Stage 3, Median): 28 h
- ratio of AUC of NK/Ketamine ([2]; tested ketamine patch): 1.40
- ratio of Cmax of NK/ketamine ([2]; tested ketamine patch): 1.08

SMILES: CN[C@]1(c2ccccc2Cl)CCCCC1=O [S-ketamine]
- greater affinity than R-ketamine for NMDA receptor binding [4]: ~4 fold
